Measured values published in US20230348454A1, “COMPOUNDS AS MODULATORS OF BIS-PHOSPHOGLYCERATE MUTASE FOR THE TREATMENT OF SICKLE CELL DISEASE” (Genzyme Corporation, priority 2020, published 2023).
pIC50: −log10 of the molar value.

What follows are molecules tested against T1, hBPGM (Homo sapiens, UniProt P07738) (assay: BPGM synthase assay). Details: Table 6; read-out: huBPGM: synthase Enzyme IC50.
T1 sequence (P07738 1-259): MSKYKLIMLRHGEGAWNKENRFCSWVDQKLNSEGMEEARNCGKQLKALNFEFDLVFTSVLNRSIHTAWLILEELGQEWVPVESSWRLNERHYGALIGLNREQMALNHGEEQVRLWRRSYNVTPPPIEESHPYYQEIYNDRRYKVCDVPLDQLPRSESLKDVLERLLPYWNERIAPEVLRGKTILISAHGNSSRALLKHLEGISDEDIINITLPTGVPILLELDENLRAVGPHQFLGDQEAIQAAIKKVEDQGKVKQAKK
Format: biochemical
Description: The following materials were used in this assay: deionized water; Bisphosphoglycerate mutase (BPGM; Standard Buffer: 50 mM Tris, 0.01% Tween 20, pH 7.4); BPGM Reaction Buffer (50 mM Tris, 0.01% Tween 20, 3.23 mM KH2PO4, pH 7.4); dithiothreitol (DTT; Stock solution: 100 mM in Standard Buffer); 384-Well Black Assay Plate (Corning, P/N 3575); DMSO; BPGM Stock Solution (500 nM in BPGM Standard Buffer); Glyceraldehyde 3-phosphate dehydrogenase (GAPDH; Stock Solution: 40 U/mL in 20 mM Tris-HCL Buffer with 20% Glycerol, 1 mM EDTA, 1 mM DTT); Glyceraldehyde 3-phosphate (GAP; Stock Solution: 20 mM in BPGM Standard Buffer); 3-PG Stock Solution (500 μM in BPGM Standard Buffer); Nicotinamide adenine dinucleotide (NAD; Stock Solution: 50 mM in BPGM Standard Buffer); Koningic Acid (1 mM Stock in DMSO); Resazurin Stock Solution (10 mM in DMSO); Diaphorase Stock Solution (40 U/mL in BPGM Standard Buffer); DTT Reaction Buffer (1 mM DTT in BPGM Reaction Buffer); Enzyme Solution (5 nM BPGM, 0.4 U/mL GAPDH in DTT Reaction Buffer); GAPDH Solution (0.4 U/mL GAPDH in DTT Reaction Buffer); Substrate Solution (2 mM NAD, 20 μM 3PG, 800 μM GAP in DTT Reaction Buffer); and Resazurin Solution (5 U/mL Diaphorase, 500 μM Resazurin in BPGM Standard Buffer).
To the assay plate was added Enzyme Solution (20 uL) to columns 2-22 and 24 of the assay plate. To columns 1 and 23 was added GAPDH Solution (20 uL). A separate compound plate was prepared at the desired concentrations and all wells were normalized with 5% DMSO. The compound plate was incubated for 30 minutes at RT. Next, the substrate solution (20 μL) was dispensed to all reaction wells and the plate was incubated for 60 minutes at RT. Koningic acid (1 μL) was added and the plate was incubated for 10 minutes at RT. During this time period, the NADH fluorescence was read at ex: 360/em: 460. Next, Resazurin Solution (10 μL) was added to all reaction wells and the plate was incubated for 30 minutes at RT. The resorufin fluorescence was then read at ex:544/em:590.
A pIC50 of 7.46 was found for `Cc1nc(COC(=O)N2CCC(C)(O)C2)sc1-c1cccc(-c2cc(F)c3[nH]nnc3c2F)n1` (stereo not drawn) [Example 31] in this work.
A pIC50 of 6.42 was found for `Cc1nc(CO)sc1-c1csc(-c2cc(F)c3[nH]nnc3c2F)n1` [Example 87] in this work.
A pIC50 of 7.31 was found for `Cc1nc(COCC2(O)CC2)sc1-c1cccc(-c2cc(F)c3nn[nH]c3c2F)n1` [Example 238] in this work.
A pIC50 of 7.44 was found for `Cc1nc(COc2cccnn2)sc1-c1csc(-c2cc(F)c3[nH]nnc3c2F)n1` [Example 38] in this work.
A pIC50 of 6.60 was found for `Cc1nc(COc2ncccn2)sc1-c1ccnc(-c2cc(O)c(C#N)c(F)c2)c1` [Example 24] in this work.
`Cc1nc(C)c(CCOc2cc(F)c3nn[nH]c3c2F)s1` [Example 222] was tested, and the pIC50 was < 4.60.
A pIC50 of 5.82 was found for `Cc1nc(COc2ccccn2)sc1-c1cccc(-c2cc(O)c(C#N)c(F)c2)n1` [Example 120] in this work.
A pIC50 of 7.36 was found for `COCC1CCCN1C(=O)OCc1nc(C)c(-c2cccc(-c3cc(F)c4nn[nH]c4c3F)n2)s1` (stereo not drawn) [Example 40] in this work.
A pIC50 of 7.48 was found for `COC(=O)NCc1nc(C)c(-c2cccc(-c3cc(F)c4nn[nH]c4c3F)n2)s1` [Example 122] in this work.
A pIC50 of 5.72 was found for `Cc1nc(CNC(=O)C2CCN(C)CC2)sc1-c1csc(-c2cc(F)c3[nH]nnc3c2)n1` [Example 182] in this work.
A pIC50 of 6.60 was found for `COC(=O)NCc1nc(C)c(-c2csc(-c3cc(O)c(-c4nnn[nH]4)cc3F)c2)s1` [Example 184] in this work.
A pIC50 of 7.52 was found for `Cc1nc(COCC(C)(C)O)sc1-c1nc(-c2cc(F)c3nn[nH]c3c2F)cs1` [Example 224] in this work.
In the case of `Cc1nc(COc2ncccn2)sc1-c1cccc(-c2ccc([N+](=O)[O-])c(F)c2)n1` [Example 134], the pIC50 was < 4.60.
`COc1c(F)cc(-c2cccc(-c3sc(COc4ncccn4)nc3C)n2)c(F)c1C#N` [Example 228] was tested, and the pIC50 was < 4.60.
A pIC50 of 5.36 was found for `Cc1nc(COc2ncccn2)sc1-c1cccc(-c2cc(F)c(O)c(F)c2C)n1` [Example 133] in this work.
`Cc1nc(COc2ncccn2)sc1-c1cccc(-c2cc(F)c3nnn(C)c3c2)n1` [Example 150] was tested, and the pIC50 was < 4.00.
A pIC50 of 5.52 was found for `Cc1nc(COc2ccccn2)sc1-c1csc(-c2cc(F)c(OP(=O)(O)O)c(F)c2F)n1` [Example 81] in this work.
A pIC50 of 6.19 was found for `Cc1nc(CNC(=O)N(C)C)sc1-c1csc(-c2cc(F)c(O)c(F)c2F)n1` [Example 112] in this work.
A pIC50 of 5.49 was found for `Cc1nc(CNC(=O)N(C)C)sc1-c1csc(-c2cc(F)c3[nH]nnc3c2)n1` [Example 107] in this work.
A pIC50 of 5.80 was found for `Cc1nc(COCC(=O)N2CCN(C)CC2)sc1-c1csc(-c2cc(F)c(O)c(F)c2F)n1` [Example 123] in this work.
A pIC50 of 5.66 was found for `Cc1nnc(-c2cccc(-c3cc(F)c4nn[nH]c4c3F)n2)s1` [Example 232] in this work.
A pIC50 of 6.70 was found for `Cc1nc(COc2ncccn2)sc1-c1csc(-c2cc(F)c(O)c(F)c2F)n1` [Example 70] in this work.
A pIC50 of 5.20 was found for `Cc1nc(COCC(=O)N2CCC(O)C2)sc1-c1csc(-c2cc(F)c(O)c(F)c2F)n1` (stereo not drawn) [Example 124] in this work.
A pIC50 of 6.05 was found for `Cc1nc(CNCC(=O)N(C)C)sc1-c1cccc(-c2cc(F)c3nn[nH]c3c2F)n1` [Example 53] in this work.
A pIC50 of 6.29 was found for `Cc1nc(COc2ncccn2)sc1-c1nc(-c2cc(F)c(O)c(C#N)c2)cs1` [Example 72] in this work.
A pIC50 of 5.82 was found for `Cc1nc(COCC(=O)N2CCC(O)C2)sc1-c1csc(-c2cc(F)c3[nH]nnc3c2F)n1` (stereo not drawn) [Example 78] in this work.
A pIC50 of 7.12 was found for `Cc1nc(COC(=O)N2CCC(N(C)C)C2)sc1-c1cccc(-c2cc(F)c3nn[nH]c3c2F)n1` (stereo not drawn) [Example 32] in this work.
A pIC50 of 6.28 was found for `Cc1nc(CNC(=O)c2cnn(C)c2)sc1-c1csc(-c2cc(F)c(O)c(F)c2F)n1` [Example 113] in this work.
A pIC50 of 6.77 was found for `Cc1nc(COCCN(C)C)sc1-c1cccc(-c2cc(F)c3nn[nH]c3c2F)n1` [Example 221] in this work.
A pIC50 of 7.04 was found for `CC(=O)NCc1nc(C)c(-c2cccc(-c3cc(F)c4nn[nH]c4c3F)n2)s1` [Example 54] in this work.
A pIC50 of 6.66 was found for `Cc1nc(CNC(=O)N2CCC(O)C2)sc1-c1cccc(-c2cc(F)c3nn[nH]c3c2F)n1` (stereo not drawn) [Example 61] in this work.
A pIC50 of 6.60 was found for `Cc1nc(COc2ncccn2)sc1-c1csc(-c2cc(F)c(C#N)c(O)c2F)n1` [Example 33] in this work.
`Cc1nc(COCC(=O)C2CCNCC2)sc1-c1csc(-c2cc(F)c(O)c(F)c2F)n1` [Example 94] was tested, and the pIC50 was < 4.60.
A pIC50 of 6.39 was found for `Cc1nc(COCC(C)(C)O)sc1-c1cccc(-c2cc(F)c(O)c(F)c2F)n1` [Example 218] in this work.
A pIC50 of 6.54 was found for `Cc1nc(COc2ncccn2)sc1-c1ccnc(-c2cc(F)c(O)c(F)c2F)c1` [Example 57] in this work.
A pIC50 of 7.85 was found for `Cc1nc(CNC(=O)c2cccnn2)sc1-c1nc(-c2cc(F)c3nn[nH]c3c2F)cs1` [Example 43] in this work.
A pIC50 of 6.19 was found for `Cc1nc(CO)sc1-c1cccc(-c2cc(F)c3nn[nH]c3c2F)n1` [Example 91] in this work.
A pIC50 of 5.05 was found for `Cc1nc(CNC(=O)C2CCN(C)CC2)sc1-c1csc(-c2cc(F)c(O)c(F)c2F)n1` [Example 93] in this work.
A pIC50 of 5.12 was found for `Cc1nc(Cc2ccccn2)sc1-c1cccc(-c2ccc(C(=O)NS(C)(=O)=O)cc2)c1` [Example 210] in this work.
`COC(=O)NCc1nc(C)c(-c2csc(-c3cc(O)c(S(N)(=O)=O)cc3F)n2)s1` [Example 202] was tested, and the pIC50 was < 4.60.
A pIC50 of 6.48 was found for `Cc1nc(CNC(=O)c2ccn(C)n2)sc1-c1csc(-c2cc(F)c(O)c(F)c2F)n1` [Example 106] in this work.
A pIC50 of 7.10 was found for `Cc1nc(COc2ncccn2)sc1-c1ccnc(-c2cc(F)c(O)c(C#N)c2)n1` [Example 69] in this work.
A pIC50 of 6.52 was found for `Cc1nc(COc2ncccn2)sc1-c1nc(-c2cc(O)c(C#N)c(F)c2)cs1` [Example 71] in this work.
A pIC50 of 5.35 was found for `Cc1nc(COc2ncccn2)sc1-c1cccc(-c2ccn3c(O)nnc3c2)n1` [Example 149] in this work.
A pIC50 of 5.64 was found for `Cc1nc(CNC(=O)N2CCC(O)C2)sc1-c1csc(-c2cc(F)c(O)c(F)c2F)n1` (stereo not drawn) [Example 92] in this work.
A pIC50 of 6.54 was found for `Cc1nc(COc2ncccn2)sc1-c1cccc(-c2cc(O)c(C#N)c(F)c2)n1` [Example 74] in this work.
A pIC50 of 6.89 was found for `Cc1nc(COC(C)(C)C)sc1-c1cccc(-c2cc(F)c3nn[nH]c3c2F)n1` [Example 235] in this work.
A pIC50 of 4.89 was found for `Cc1nc(C)c(-c2cnn(-c3cc(F)c4[nH]nnc4c3F)c2)s1` [Example 37] in this work.
A pIC50 of 6.70 was found for `COCc1nc(C)c(-c2cccc(-c3cc(F)c4nn[nH]c4c3F)n2)s1` [Example 68] in this work.
A pIC50 of 6.46 was found for `Cc1nc(COC(=O)N2CCC(O)C2)sc1-c1cccc(-c2cc(F)c3nn[nH]c3c2F)c1` (stereo not drawn) [Example 62] in this work.
A pIC50 of 7.57 was found for `Cc1nc(COc2ncccn2)sc1-c1ccnc(-c2cc(F)c3nn[nH]c3c2F)n1` [Example 220] in this work.
In the case of `Cc1nc(COc2ncccn2)sc1-c1cccc(-c2ccc3[nH]c(=O)oc3c2)n1` [Example 117], the pIC50 was < 4.60.
A pIC50 of 5.27 was found for `Cc1ncsc1-c1cccc(-c2cc(F)c3[nH]nnc3c2F)n1` [Example 216] in this work.
With `COC(=O)NCc1nc(C)c(-c2csc(-c3cc(O)c(NS(C)(=O)=O)cc3F)n2)s1` [Example 183] the pIC50 was < 4.60.
A pIC50 of 7.37 was found for `Cc1nc(COCC(=O)N(C)C)sc1-c1cccc(-c2cc(F)c3nn[nH]c3c2F)n1` [Example 64] in this work.
A pIC50 of 7.33 was found for `Cc1nc(COCC(=O)N(C)C)sc1-c1csc(-c2cc(F)c3[nH]nnc3c2F)n1` [Example 49] in this work.
A pIC50 of 6.85 was found for `Cc1nc(C)c(-c2csc(-c3cc(F)c4[nH]nnc4c3F)n2)s1` [Example 86] in this work.
A pIC50 of 7.09 was found for `Cc1nc(COCC(C)(C)O)sc1-c1nc(-c2cc(F)c3nn[nH]c3c2)cs1` [Example 226] in this work.
A pIC50 of 6.13 was found for `Cc1nc(Cc2ccccn2)sc1-c1cccc(-c2ccc(C(=O)NS(=O)(=O)c3ccccc3)cc2)c1` [Example 211] in this work.
A pIC50 of 6.55 was found for `Cc1nc(CNc2ncccn2)sc1-c1csc(-c2cc(F)c3[nH]nnc3c2F)n1` [Example 51] in this work.
A pIC50 of 5.62 was found for `Cc1nc(COC(=O)N2CCC(O)C2)sc1-c1csc(-c2cc(F)c(O)c(F)c2F)n1` (stereo not drawn) [Example 79] in this work.
A pIC50 of 5.48 was found for `Cc1nc(COc2ccccn2)sc1-c1cccc(-c2cc(F)c(O)c(C#N)c2)n1` [Example 121] in this work.
A pIC50 of 4.89 was found for `Cc1nc(CNC(=O)C(C)(C)C)sc1-c1cccc(-c2cc(F)c(O)c(F)c2F)c1` [Example 146] in this work.
A pIC50 of 7.39 was found for `COC1CCN(C(=O)OCc2nc(C)c(-c3cccc(-c4cc(F)c5nn[nH]c5c4F)n3)s2)C1` (stereo not drawn) [Example 39] in this work.
A pIC50 of 6.92 was found for `Cc1nc(C(=O)NC2CCC(O)CC2)sc1-c1cccc(-c2cc(F)c3[nH]nnc3c2F)n1` (stereo not drawn) [Example 217] in this work.
`COC(=O)NCc1nc(C)c(-c2csc(-c3ccc(C4SC(=O)NC4=O)cc3)n2)s1` (stereo not drawn) [Example 204] was tested, and the pIC50 was < 4.60.
